Assay results taken from paper PMC7026418, “The kinase polypharmacology landscape of clinical PARP inhibitors” (Scientific Reports, 2020).
Where two headings read alike, the source gives them in different places.

Tests used:
Assay in all cases: biochemical
Design in all cases: DiscoveRx KINOMEscan active site-directed competition binding; percent of control kinase bound to immobilised ligand
ACVR1 = target: T1, ACVR1 (Homo sapiens, UniProt Q04771)
T1 sequence (Q04771 1-509): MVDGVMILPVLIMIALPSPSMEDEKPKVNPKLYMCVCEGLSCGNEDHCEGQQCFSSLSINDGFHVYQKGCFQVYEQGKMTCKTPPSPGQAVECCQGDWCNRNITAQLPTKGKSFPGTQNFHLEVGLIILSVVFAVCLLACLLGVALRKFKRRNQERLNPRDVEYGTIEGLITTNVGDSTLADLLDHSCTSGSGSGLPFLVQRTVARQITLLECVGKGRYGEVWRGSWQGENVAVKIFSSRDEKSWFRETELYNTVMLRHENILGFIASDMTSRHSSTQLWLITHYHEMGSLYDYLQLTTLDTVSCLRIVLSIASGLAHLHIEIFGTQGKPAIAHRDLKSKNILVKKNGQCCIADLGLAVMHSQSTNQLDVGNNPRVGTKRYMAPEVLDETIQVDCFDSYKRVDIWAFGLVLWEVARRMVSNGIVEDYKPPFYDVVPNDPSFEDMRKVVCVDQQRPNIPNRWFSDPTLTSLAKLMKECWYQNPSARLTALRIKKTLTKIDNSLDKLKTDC

HCK = HCK (Homo sapiens, UniProt P08631)
Chain of HCK (P08631 whole entry): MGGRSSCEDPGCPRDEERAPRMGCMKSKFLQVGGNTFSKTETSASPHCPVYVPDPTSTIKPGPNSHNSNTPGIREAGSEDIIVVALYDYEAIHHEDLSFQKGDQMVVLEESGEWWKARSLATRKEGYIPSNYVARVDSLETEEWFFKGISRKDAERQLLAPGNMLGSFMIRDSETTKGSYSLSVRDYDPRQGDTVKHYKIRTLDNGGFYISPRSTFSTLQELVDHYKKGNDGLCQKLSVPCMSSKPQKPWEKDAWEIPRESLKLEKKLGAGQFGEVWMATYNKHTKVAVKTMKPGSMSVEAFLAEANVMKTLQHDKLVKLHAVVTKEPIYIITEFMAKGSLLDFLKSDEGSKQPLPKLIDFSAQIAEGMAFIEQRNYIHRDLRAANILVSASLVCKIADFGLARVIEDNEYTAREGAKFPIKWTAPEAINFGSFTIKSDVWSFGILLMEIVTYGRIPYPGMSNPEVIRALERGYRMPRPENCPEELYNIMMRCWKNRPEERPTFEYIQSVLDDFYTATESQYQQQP

MAP4K3 = target: T2, MAP4K3 (Homo sapiens, UniProt Q8IVH8)
T2 sequence (Q8IVH8 1-894): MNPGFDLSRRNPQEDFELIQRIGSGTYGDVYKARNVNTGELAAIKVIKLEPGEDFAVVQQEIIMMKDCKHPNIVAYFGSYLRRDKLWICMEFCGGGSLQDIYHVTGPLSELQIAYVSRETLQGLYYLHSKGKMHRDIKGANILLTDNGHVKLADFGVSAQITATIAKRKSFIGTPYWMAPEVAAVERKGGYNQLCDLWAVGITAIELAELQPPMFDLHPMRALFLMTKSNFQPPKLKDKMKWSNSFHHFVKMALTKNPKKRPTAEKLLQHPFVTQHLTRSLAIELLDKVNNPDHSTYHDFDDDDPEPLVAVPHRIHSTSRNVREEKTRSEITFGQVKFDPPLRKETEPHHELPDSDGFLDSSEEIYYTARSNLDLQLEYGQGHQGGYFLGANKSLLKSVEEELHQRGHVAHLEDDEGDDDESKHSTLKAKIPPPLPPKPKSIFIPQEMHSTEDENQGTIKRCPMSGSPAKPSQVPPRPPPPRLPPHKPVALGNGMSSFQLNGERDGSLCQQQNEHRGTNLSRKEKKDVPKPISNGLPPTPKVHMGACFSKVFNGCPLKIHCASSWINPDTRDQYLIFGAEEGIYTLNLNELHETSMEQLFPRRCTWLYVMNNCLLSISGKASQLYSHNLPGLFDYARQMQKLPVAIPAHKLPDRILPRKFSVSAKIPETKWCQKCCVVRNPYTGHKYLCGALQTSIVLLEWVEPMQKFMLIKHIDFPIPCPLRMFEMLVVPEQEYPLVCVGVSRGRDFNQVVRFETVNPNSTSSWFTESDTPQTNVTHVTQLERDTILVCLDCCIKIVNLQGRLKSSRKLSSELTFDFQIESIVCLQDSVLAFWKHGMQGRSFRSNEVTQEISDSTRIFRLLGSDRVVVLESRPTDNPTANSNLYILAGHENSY

SYK = SYK (Homo sapiens, UniProt P43405)
MELK = MELK (Homo sapiens, UniProt Q14680)
Chain of MELK (Q14680 whole entry): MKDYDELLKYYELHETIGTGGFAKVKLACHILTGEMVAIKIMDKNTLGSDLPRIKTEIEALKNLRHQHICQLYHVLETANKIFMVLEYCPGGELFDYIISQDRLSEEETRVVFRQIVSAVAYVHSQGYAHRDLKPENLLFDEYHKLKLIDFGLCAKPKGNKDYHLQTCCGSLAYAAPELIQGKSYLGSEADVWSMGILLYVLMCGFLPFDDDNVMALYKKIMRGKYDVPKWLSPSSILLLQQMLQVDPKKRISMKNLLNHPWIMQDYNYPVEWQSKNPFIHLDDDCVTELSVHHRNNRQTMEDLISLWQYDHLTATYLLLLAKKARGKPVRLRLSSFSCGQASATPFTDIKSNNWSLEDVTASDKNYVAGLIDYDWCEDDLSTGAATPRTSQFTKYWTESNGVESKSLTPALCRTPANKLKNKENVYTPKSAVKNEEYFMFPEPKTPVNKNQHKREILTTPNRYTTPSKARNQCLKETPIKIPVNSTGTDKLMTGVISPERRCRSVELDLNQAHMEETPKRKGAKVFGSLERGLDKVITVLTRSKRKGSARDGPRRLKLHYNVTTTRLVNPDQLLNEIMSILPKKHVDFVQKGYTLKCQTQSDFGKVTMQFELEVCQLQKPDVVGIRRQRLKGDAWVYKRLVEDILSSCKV

PIP5K1C = PIP5K1C (Homo sapiens, UniProt O60331)
Chain of PIP5K1C (O60331 whole entry): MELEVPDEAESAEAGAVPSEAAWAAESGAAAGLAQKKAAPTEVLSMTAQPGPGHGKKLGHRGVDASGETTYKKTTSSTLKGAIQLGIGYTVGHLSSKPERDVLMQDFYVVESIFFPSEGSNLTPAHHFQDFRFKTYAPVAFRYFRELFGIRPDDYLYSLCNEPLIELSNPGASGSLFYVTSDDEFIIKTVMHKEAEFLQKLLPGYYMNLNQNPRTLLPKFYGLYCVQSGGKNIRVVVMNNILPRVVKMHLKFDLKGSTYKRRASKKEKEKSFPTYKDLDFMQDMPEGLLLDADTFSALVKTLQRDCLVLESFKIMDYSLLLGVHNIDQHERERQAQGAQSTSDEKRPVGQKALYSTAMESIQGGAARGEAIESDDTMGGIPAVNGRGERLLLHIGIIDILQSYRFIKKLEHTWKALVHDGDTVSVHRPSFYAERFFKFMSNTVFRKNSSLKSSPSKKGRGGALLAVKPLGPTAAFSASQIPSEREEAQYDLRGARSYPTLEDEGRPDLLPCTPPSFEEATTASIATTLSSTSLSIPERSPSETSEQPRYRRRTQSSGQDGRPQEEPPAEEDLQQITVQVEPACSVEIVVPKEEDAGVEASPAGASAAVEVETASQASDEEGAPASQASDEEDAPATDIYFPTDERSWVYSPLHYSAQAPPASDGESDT

ERK1 = target: T3, ERK1 (Homo sapiens, UniProt P27361)
T3 construct: gene MAPK3
T3 sequence (P27361 whole entry): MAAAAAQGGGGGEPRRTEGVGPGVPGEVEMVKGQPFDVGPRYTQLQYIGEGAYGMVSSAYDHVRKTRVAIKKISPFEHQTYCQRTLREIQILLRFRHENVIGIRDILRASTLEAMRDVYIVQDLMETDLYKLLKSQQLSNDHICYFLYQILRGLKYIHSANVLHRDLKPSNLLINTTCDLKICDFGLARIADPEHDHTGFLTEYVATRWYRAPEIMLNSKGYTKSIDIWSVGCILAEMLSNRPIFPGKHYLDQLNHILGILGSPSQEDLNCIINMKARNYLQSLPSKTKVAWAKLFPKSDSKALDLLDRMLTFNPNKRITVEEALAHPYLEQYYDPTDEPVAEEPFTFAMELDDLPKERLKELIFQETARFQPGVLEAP

SNARK = target: T4, SNARK (Homo sapiens, UniProt Q9H093)
T4 construct: gene NUAK2
T4 sequence (Q9H093 1-628): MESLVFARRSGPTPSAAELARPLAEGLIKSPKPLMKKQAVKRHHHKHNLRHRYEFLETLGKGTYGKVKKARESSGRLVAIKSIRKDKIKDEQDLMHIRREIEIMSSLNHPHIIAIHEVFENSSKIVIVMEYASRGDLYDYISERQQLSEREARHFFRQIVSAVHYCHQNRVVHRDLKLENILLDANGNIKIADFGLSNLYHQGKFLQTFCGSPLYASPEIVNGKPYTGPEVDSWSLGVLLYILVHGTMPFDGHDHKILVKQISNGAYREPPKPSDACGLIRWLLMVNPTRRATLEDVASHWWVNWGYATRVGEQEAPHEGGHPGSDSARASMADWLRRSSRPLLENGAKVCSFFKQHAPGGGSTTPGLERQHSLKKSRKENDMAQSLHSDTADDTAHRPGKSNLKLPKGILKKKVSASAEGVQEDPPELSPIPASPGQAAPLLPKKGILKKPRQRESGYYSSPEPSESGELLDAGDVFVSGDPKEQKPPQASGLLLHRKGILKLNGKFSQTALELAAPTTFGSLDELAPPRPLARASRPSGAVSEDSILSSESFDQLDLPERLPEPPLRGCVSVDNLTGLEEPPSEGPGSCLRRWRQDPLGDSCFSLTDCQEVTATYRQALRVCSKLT

[1] = read-out: Niraparib (MK-4827) / %Ctrl @ 10000nM
[2] = read-out: Olaparib / %Ctrl @ 10000nM
[3] = read-out: Rucaparib / %Ctrl @ 10000nM, binding competition, % of control
[4] = read-out: Talazoparib (BMN 673) / %Ctrl @ 10000nM

## NC(=O)c1cccc2cn(-c3ccc([C@@H]4CCCNC4)cc3)nc12 [Niraparib]
ACVR1; [1]
  percent of control binding at 10 µM: 83%
HCK; [1]
  percent of control binding at 10 µM: 70%
MAP4K3; [1]
  percent of control binding at 10 µM: 84%
SYK; [1]
  percent of control binding at 10 µM: 82%
MELK; [1]
  percent of control binding at 10 µM: 70%
PIP5K1C; [1]
  percent of control binding at 10 µM: 83%
ERK1; [1]
  percent of control binding at 10 µM: 98%
SNARK; [1]
  percent of control binding at 10 µM: 98%

## O=C(c1cc(Cc2n[nH]c(=O)c3ccccc23)ccc1F)N1CCN(C(=O)C2CC2)CC1 [Olaparib]
ACVR1; [2]
  percent of control binding at 10 µM: 96%
HCK; [2]
  percent of control binding at 10 µM: 96%
MAP4K3; [2]
  percent of control binding at 10 µM: 100%
SYK; [2]
  percent of control binding at 10 µM: 100%
MELK; [2]
  percent of control binding at 10 µM: 90%
PIP5K1C; [2]
  percent of control binding at 10 µM: 100%
ERK1; [2]
  percent of control binding at 10 µM: 98%
SNARK; [2]
  percent of control binding at 10 µM: 72%

## CNCc1ccc(-c2[nH]c3cc(F)cc4c3c2CCNC4=O)cc1 [Rucaparib]
ACVR1; [3]
  percent of control binding at 10 µM: 92%
HCK; [3]
  percent of control binding at 10 µM: 74%
MAP4K3; [3]
  percent of control binding at 10 µM: 91%
SYK; [3]
  percent of control binding at 10 µM: 100%
MELK; [3]
  percent of control binding at 10 µM: 76%
PIP5K1C; [3]
  percent of control binding at 10 µM: 100%
ERK1; [3]
  percent of control binding at 10 µM: 100%
SNARK; [3]
  percent of control binding at 10 µM: 50%

## Cn1ncnc1[C@H]1c2n[nH]c(=O)c3cc(F)cc(c23)N[C@@H]1c1ccc(F)cc1 [Talazoparib]
ACVR1; [4]
  percent of control binding at 10 µM: 95%
HCK; [4]
  percent of control binding at 10 µM: 86%
MAP4K3; [4]
  percent of control binding at 10 µM: 100%
SYK; [4]
  percent of control binding at 10 µM: 85%
MELK; [4]
  percent of control binding at 10 µM: 94%
PIP5K1C; [4]
  percent of control binding at 10 µM: 100%
ERK1; [4]
  percent of control binding at 10 µM: 87%
SNARK; [4]
  percent of control binding at 10 µM: 100%
